In ChEMBL document CHEMBL1129847, “2-[(substituted)phenyl]-5-[1-(2-phenylazacycloheptyl)methyl]-1H-pyrroles with high affinity and selectivity for the dopamine D3 receptor” (Bioorg Med Chem Lett, 1997):

Columns and labels:
D(3) dopamine receptor = D(3) dopamine receptor (Homo sapiens, UniProt P35462); assay: Ability to displace [125I]-sulpiride from human Dopamine receptor D3, expressed in CHO cells; assay type: cell-based
D(2) dopamine receptor = D(2) dopamine receptor (Homo sapiens, UniProt P14416); assay: Ability to displace [125I]sulpiride from human Dopamine receptor D2, expressed in CHO cells; assay type: cell-based
[1] = molecular target: Dopamine receptors; D2 & D3 (Homo sapiens) (UniProt P14416+P35462); assay: Ratio of human dopamine D3 receptor to that of human dopamine D2 receptor was evaluated; assay type: protein assay

Sequence of D(3) dopamine receptor (P35462 whole entry): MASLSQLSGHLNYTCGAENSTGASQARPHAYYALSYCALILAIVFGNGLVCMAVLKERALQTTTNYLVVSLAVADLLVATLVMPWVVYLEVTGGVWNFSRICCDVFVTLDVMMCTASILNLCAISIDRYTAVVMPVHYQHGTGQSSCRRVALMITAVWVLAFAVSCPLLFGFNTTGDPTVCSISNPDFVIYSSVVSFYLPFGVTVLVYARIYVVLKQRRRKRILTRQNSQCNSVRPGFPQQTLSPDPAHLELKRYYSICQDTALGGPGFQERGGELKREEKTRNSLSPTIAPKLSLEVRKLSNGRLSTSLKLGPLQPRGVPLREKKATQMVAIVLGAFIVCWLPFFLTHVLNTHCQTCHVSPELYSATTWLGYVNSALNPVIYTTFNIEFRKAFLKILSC
Sequence of D(2) dopamine receptor (P14416 whole entry): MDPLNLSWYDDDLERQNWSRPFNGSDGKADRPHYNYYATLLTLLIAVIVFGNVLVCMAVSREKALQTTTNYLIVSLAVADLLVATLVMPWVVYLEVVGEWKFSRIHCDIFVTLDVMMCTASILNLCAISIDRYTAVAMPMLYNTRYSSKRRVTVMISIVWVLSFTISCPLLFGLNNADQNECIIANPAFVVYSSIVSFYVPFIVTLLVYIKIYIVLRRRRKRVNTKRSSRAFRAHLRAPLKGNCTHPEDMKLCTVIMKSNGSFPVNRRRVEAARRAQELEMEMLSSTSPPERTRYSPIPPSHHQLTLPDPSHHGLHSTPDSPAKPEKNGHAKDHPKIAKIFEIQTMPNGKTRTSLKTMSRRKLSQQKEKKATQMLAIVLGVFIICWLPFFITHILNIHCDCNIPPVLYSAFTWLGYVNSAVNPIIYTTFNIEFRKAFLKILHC

Ki (D(3) dopamine receptor) [nM]	Ki (D(2) dopamine receptor) [nM]	Selectivity [1]	SMILES
79.4	631	8	COc1ccc(S(=O)(=O)Nc2ccccc2)cc1-c1ccc(CN2CCCCCC2c2ccccc2)[nH]1 (stereo unspecified)
6.31	501	80	CCN(Cc1ccccc1)S(=O)(=O)c1ccc(OC)c(-c2ccc(CN3CCCCCC3c3ccccc3)[nH]2)c1 (stereo unspecified)
		30	CCS(=O)(=O)c1ccc(OC)c(-c2ccc(CN3CCCCCC3c3ccccc3)[nH]2)c1 (stereo unspecified)
3.98	501	125	COc1ccc(S(=O)(=O)N(C)c2ccccc2)cc1-c1ccc(CN2CCCCC[C@@H]2c2ccccc2)[nH]1
1.58	100	60	COc1ccc(S(=O)(=O)N2CCOCC2)cc1-c1ccc(CN2CCCCCC2c2ccccc2)[nH]1 (stereo unspecified)
6.31	1000	150	COc1ccc(S(=O)(=O)N2CCCc3ccccc32)cc1-c1ccc(CN2CCCCCC2c2ccccc2)[nH]1 (stereo unspecified)
6.31	631	100	COc1ccc(S(=O)(=O)N(C)c2ccccc2)cc1-c1ccc(CN2CCCCCC2c2ccccc2)[nH]1 (stereo unspecified)
2	100	50	COc1ccc(S(=O)(=O)N(C)C)cc1-c1ccc(CN2CCCCCC2c2ccccc2)[nH]1 (stereo unspecified)

Further lines, the compound ahead of its results:

SMILES	Ki (D(3) dopamine receptor) [nM]	Ki (D(2) dopamine receptor) [nM]	Selectivity [1]
COc1ccc(S(=O)(=O)N(C)c2ccccc2)cc1-c1ccc(CN2CCCCC[C@H]2c2ccccc2)[nH]1	15.8	1580	100
COc1ccc(S(=O)(=O)C(C)C)cc1-c1ccc(CN2CCCCCC2c2ccccc2)[nH]1 (stereo unspecified)	5.01	200	40
CCS(=O)(=O)c1ccc(OC)c(-c2ccc(CN3CCCCC[C@@H]3c3ccccc3)[nH]2)c1	0.794	25.1	30
CCS(=O)(=O)c1ccc(OC)c(-c2ccc(CN3CCCCC[C@H]3c3ccccc3)[nH]2)c1	3.98	100	25
COc1ccc(S(=O)(=O)N2CCc3ccccc3C2)cc1-c1ccc(CN2CCCCCC2c2ccccc2)[nH]1 (stereo unspecified)	2	200	100
COc1ccc(S(=O)(=O)Oc2ccccc2)cc1-c1ccc(CN2CCCCCC2c2ccccc2)[nH]1 (stereo unspecified)	10	1000	100
COc1ccc(S(=O)(=O)Cc2ccccc2)cc1-c1ccc(CN2CCCCCC2c2ccccc2)[nH]1 (stereo unspecified)	3.98	126	30
COc1ccc(S(N)(=O)=O)cc1-c1ccc(CN2CCCCCC2c2ccccc2)[nH]1 (stereo unspecified)	39.8	398	10
